Measured values from article doi:10.1101/2021.09.30.462449v1 (biorxiv, 2021).

Experiments:
Assay in all cases: biochemical
Settings in all cases: read-out: % inhibition mean (Z'Lyte)
EPHA5 = EPHA5 (Homo sapiens, UniProt P54756)
AURKA (Aurora A) = AURKA (Aurora A) (Homo sapiens, UniProt O14965)
FRAP1 (mTOR) = FRAP1 (mTOR) (Homo sapiens, UniProt P42345)
MARK3 = MARK3 (Homo sapiens, UniProt P27448)
HIPK2 = HIPK2 (Homo sapiens, UniProt Q9H2X6)
EGFR (ErbB1) L858R = EGFR (ErbB1) L858R (Homo sapiens, UniProt P00533, L858R)
Sequence of EGFR (ErbB1) L858R (P00533 whole entry L858R): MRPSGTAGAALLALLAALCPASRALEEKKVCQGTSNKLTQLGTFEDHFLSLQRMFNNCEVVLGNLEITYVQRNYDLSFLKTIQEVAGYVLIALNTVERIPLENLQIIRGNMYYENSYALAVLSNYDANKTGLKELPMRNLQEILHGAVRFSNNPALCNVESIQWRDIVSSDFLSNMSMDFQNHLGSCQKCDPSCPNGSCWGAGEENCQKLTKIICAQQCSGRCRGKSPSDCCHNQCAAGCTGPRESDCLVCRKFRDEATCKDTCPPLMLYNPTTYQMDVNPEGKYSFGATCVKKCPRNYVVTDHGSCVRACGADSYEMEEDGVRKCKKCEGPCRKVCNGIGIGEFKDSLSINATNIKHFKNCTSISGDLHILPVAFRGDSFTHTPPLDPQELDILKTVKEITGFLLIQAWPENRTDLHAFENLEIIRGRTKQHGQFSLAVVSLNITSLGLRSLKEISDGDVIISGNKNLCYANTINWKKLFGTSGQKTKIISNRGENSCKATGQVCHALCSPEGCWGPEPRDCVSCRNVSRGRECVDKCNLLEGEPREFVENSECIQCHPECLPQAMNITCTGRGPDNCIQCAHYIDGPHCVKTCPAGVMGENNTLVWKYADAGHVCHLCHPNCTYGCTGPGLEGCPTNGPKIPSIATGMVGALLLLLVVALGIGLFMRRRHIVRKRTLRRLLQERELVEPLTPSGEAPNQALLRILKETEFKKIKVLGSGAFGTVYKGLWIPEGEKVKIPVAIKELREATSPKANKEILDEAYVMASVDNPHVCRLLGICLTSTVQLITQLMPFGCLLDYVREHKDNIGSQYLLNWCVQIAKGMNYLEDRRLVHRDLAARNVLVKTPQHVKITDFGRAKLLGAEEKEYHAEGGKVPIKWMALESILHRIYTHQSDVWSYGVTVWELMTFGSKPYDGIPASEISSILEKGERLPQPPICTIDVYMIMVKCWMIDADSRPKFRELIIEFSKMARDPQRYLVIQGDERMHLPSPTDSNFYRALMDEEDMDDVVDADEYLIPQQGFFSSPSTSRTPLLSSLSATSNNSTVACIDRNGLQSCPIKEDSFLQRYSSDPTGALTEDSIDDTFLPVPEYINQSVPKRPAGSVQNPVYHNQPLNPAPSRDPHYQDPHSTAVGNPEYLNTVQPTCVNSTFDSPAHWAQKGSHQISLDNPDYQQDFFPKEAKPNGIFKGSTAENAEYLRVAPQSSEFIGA

TAOK2 (TAO1) = TAOK2 (TAO1) (Homo sapiens, UniProt Q9UL54)
LYN A = LYN A (Homo sapiens, UniProt P07948)
HIPK3 (YAK1) = HIPK3 (YAK1) (Homo sapiens, UniProt Q9H422)
GRK5 = GRK5 (Homo sapiens, UniProt P34947)
RAF1 (cRAF) Y340D Y341D = RAF1 (cRAF) Y340D Y341D (Homo sapiens, UniProt P04049, Y340D/Y341D)
GRK4 = GRK4 (Homo sapiens, UniProt P32298)
FGFR2 = FGFR2 (Homo sapiens, UniProt P21802)
Sequence of FGFR2 (P21802 whole entry): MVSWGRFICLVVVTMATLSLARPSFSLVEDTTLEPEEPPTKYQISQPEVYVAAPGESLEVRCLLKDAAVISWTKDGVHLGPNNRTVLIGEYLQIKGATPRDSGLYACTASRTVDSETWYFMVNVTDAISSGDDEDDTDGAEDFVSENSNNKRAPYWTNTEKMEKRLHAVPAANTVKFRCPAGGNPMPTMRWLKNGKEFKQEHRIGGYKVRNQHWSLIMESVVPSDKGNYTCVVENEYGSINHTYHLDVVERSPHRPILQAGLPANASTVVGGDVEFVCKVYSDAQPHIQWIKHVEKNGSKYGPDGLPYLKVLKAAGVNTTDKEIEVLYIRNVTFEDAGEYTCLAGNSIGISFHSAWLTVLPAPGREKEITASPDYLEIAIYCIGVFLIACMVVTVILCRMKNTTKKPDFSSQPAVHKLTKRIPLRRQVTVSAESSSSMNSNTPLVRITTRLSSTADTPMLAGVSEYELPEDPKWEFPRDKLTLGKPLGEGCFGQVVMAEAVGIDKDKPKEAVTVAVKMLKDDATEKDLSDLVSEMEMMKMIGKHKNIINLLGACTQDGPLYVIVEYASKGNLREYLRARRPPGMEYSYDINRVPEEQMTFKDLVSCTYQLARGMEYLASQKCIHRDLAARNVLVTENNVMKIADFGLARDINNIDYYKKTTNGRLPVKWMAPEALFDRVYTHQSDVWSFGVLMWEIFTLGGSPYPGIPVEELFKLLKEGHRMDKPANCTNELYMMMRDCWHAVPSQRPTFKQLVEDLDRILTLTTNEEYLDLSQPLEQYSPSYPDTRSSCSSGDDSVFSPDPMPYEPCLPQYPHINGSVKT

CHEK2 (CHK2) = CHEK2 (CHK2) (Homo sapiens, UniProt O96017)
MAPK13 (p38 delta) = MAPK13 (p38 delta) (Homo sapiens, UniProt O15264)
Sequence of MAPK13 (p38 delta) (O15264 whole entry): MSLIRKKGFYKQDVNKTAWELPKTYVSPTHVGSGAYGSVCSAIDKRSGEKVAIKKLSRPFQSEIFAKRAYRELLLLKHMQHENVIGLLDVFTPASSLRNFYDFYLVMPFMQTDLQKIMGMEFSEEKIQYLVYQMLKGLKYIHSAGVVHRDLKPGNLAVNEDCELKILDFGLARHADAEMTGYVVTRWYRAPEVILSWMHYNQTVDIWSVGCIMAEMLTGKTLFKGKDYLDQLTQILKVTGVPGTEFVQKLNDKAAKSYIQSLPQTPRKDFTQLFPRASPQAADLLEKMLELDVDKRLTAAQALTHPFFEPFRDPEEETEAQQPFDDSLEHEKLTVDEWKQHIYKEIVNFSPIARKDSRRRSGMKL

MAPK8 (JNK1) = MAPK8 (JNK1) (Homo sapiens, UniProt P45983)
PAK4 = PAK4 (Homo sapiens, UniProt O96013)
Sequence of PAK4 (O96013 whole entry): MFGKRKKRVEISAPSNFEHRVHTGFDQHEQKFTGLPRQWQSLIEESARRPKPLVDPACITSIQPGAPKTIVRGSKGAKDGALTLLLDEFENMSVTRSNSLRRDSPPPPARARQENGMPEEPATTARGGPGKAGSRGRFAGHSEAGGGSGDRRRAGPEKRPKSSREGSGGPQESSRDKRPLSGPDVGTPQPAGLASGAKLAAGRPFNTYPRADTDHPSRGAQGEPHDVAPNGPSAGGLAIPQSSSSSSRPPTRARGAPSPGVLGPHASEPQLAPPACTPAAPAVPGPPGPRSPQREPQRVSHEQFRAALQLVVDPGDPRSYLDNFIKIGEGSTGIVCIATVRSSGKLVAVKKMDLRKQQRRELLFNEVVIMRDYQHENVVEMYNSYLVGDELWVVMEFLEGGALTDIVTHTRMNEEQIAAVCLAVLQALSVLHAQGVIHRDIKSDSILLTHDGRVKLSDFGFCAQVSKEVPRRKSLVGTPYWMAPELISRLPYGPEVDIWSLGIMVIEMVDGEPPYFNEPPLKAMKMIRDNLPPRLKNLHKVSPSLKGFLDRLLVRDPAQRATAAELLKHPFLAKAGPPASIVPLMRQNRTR

NEK4 = NEK4 (Homo sapiens, UniProt P51957)
MAP3K19 (YSK4) = MAP3K19 (YSK4) (Homo sapiens, UniProt Q56UN5)
MST4 = MST4 (Homo sapiens, UniProt Q9P289)
FLT4 (VEGFR3) = FLT4 (VEGFR3) (Homo sapiens, UniProt P35916)
Sequence of FLT4 (VEGFR3) (P35916 whole entry): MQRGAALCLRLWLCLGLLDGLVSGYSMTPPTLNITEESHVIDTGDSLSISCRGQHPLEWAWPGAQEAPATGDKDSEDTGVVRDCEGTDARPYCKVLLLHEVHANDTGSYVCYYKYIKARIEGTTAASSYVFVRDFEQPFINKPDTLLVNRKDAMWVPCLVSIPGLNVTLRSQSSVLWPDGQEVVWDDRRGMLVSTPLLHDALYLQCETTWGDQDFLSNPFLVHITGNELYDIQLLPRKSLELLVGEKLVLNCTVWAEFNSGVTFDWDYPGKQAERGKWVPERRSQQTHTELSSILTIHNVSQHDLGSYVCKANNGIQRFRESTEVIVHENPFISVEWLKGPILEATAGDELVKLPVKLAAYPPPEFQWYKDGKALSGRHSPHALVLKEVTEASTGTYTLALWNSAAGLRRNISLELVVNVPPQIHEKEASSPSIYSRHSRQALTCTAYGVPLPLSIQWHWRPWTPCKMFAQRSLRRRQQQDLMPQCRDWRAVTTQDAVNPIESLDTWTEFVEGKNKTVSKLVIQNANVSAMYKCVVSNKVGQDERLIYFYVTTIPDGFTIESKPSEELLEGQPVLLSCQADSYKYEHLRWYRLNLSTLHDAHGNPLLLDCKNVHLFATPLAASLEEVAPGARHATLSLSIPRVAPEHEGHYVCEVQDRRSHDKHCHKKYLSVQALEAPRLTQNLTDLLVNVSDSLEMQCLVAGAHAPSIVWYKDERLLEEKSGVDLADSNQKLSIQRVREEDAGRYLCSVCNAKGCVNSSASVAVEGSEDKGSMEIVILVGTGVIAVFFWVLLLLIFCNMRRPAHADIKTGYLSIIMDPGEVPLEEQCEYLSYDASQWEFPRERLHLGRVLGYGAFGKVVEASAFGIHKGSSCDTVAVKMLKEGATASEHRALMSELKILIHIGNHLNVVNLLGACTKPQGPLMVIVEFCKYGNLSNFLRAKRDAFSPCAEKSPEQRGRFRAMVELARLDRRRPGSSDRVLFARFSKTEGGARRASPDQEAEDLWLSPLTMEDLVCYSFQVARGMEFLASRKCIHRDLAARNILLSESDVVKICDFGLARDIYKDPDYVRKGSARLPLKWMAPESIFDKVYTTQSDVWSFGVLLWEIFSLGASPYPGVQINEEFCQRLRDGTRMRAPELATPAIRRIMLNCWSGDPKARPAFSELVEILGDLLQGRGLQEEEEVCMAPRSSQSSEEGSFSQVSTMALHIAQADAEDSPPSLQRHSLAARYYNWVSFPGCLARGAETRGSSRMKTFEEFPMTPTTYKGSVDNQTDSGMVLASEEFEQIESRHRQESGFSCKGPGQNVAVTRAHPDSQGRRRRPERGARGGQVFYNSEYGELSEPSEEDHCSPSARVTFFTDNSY

PRKCB1 (PKC beta I) = PRKCB1 (PKC beta I) (Homo sapiens, UniProt P05771)
PIM2 = PIM2 (Homo sapiens, UniProt Q9P1W9)
Sequence of PIM2 (Q9P1W9 whole entry): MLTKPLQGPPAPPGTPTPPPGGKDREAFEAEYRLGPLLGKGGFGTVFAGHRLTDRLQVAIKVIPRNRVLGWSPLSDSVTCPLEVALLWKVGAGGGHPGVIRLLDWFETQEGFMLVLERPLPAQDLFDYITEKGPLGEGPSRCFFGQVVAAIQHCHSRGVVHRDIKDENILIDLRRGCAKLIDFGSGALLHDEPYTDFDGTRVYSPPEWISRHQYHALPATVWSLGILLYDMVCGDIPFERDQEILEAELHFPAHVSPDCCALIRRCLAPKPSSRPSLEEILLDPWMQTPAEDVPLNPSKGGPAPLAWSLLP

PRKCI (PKC iota) = PRKCI (PKC iota) (Homo sapiens, UniProt P41743)
PRKG1 = PRKG1 (Homo sapiens, UniProt Q13976)
BTK = BTK (Homo sapiens, UniProt Q06187)
ABL1 G250E = ABL1 G250E (Homo sapiens, UniProt P00519, G250E)
MAP2K1 (MEK1) = MAP2K1 (MEK1) (Homo sapiens, UniProt Q02750)
CSNK1D (CK1 delta) = CSNK1D (CK1 delta) (Homo sapiens, UniProt P48730)
Sequence of CSNK1D (CK1 delta) (P48730 whole entry): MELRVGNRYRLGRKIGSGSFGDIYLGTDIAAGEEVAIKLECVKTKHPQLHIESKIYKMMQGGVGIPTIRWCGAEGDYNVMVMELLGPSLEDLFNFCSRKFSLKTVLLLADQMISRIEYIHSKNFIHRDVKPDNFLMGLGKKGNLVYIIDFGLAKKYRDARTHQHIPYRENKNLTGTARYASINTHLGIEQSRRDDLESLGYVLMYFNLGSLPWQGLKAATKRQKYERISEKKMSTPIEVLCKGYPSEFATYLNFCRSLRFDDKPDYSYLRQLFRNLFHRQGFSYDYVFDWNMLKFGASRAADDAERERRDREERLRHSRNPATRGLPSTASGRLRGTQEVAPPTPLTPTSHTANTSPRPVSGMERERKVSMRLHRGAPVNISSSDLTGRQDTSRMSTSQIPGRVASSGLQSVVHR

For `COc1ccc2nc3cc(Cl)ccc3c(Nc3cc(CN4CCCC4)c(O)c(CN4CCCC4)c3)c2n1` [Pyronaridine, 4-[(7-Chloro-2-methoxybenzo[b][1,5]naphthyridin-10-yl)amino]-2,6-bis(1-pyrrolidinylmethyl)phenol phosphate (1:4)], the inhibition at 1 µM (EPHA5) was -3%, the inhibition at 1 µM (AURKA (Aurora A)) was 9% and the inhibition at 1 µM (FRAP1 (mTOR)) was 1%. For the same compound, the inhibition at 1 µM (MARK3) was 2%, the inhibition at 1 µM (HIPK2) was -1% and the inhibition at 1 µM (EGFR (ErbB1) L858R) was 5%. For the same compound, the inhibition at 1 µM (TAOK2 (TAO1)) was -1%, the inhibition at 1 µM (LYN A) was -2% and the inhibition at 1 µM (HIPK3 (YAK1)) was -2%. The inhibition at 1 µM (GRK5) was 10%, the inhibition at 1 µM (RAF1 (cRAF) Y340D Y341D) was -9% and the inhibition at 1 µM (GRK4) was 25%. It also gave an inhibition at 1 µM (FGFR2) of -1%, an inhibition at 1 µM (CHEK2 (CHK2)) of 0% and an inhibition at 1 µM (MAPK13 (p38 delta)) of 5%. The inhibition at 1 µM (MAPK8 (JNK1)) was 3%, the inhibition at 1 µM (PAK4) was 3% and the inhibition at 1 µM (NEK4) was 4%. The inhibition at 1 µM (MAP3K19 (YSK4)) was 3%, the inhibition at 1 µM (MST4) was 1% and the inhibition at 1 µM (FLT4 (VEGFR3)) was 3%. For the same compound, the inhibition at 1 µM (PRKCB1 (PKC beta I)) was 2%, the inhibition at 1 µM (PIM2) was -4% and the inhibition at 1 µM (PRKCI (PKC iota)) was -10%. It also gave an inhibition at 1 µM (PRKG1) of -6%, an inhibition at 1 µM (BTK) of 9% and an inhibition at 1 µM (ABL1 G250E) of 1%. It also gave an inhibition at 1 µM (MAP2K1 (MEK1)) of -2% and an inhibition at 1 µM (CSNK1D (CK1 delta)) of 5%.
